In patent publication EP4122499A1, “FIBROBLAST ACTIVATION PROTEIN INHIBITORS AND USE THEREOF” (3B Pharmaceuticals GmbH, priority 2021, dated 2023):

Key:
recombinant human PREP = target: T1, recombinant human PREP (Homo sapiens, UniProt P48147); assay: PREP protease activity assay; assay type: biochemical; conditions: 50 µM Z-GP-AMC substrate
T1 construct: purchased R&D systems 4308-SE
T1 sequence (P48147 1-710): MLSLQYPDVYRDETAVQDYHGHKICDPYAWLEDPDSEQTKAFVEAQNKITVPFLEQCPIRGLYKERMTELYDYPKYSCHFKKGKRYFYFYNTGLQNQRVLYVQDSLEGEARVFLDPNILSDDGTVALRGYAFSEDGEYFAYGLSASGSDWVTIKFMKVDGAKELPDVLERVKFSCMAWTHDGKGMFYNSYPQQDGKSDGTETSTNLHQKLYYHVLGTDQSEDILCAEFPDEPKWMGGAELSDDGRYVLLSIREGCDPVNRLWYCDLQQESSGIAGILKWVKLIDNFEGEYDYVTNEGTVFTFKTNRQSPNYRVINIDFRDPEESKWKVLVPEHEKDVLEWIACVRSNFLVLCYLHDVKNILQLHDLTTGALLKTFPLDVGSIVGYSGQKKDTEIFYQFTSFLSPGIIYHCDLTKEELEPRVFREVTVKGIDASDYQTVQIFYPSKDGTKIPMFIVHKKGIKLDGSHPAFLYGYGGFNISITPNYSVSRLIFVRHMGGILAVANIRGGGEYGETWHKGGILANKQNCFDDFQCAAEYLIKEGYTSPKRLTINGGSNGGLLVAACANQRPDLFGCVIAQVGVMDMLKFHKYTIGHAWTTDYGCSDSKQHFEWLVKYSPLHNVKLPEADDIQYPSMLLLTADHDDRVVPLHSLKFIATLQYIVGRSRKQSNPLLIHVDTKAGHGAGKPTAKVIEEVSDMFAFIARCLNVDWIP
Method: (§1) The PREP activity assay was performed using the FACS buffer (PBS including 1% FBS, Sigma-Aldrich, Cat# D8537). […] The DPP4 activity assay was performed in DPP assay buffer (25 mM Tris, pH 8.0).
(§2) Four parameter logistic (4PL) curve fitting and pIC50 calculations were performed using ActivityBase software.

[1] = target: T2, FAP-expressing human WI-38 fibroblasts (Homo sapiens, UniProt Q12884); assay: Competitive FACS binding assay (displacement of Cy5-labeled FAP inhibitor 3BP-2935); conditions: 3 nM Cy5-labeled 3BP-2935, 4°C, 1 hour
T2 construct: FAP-expressing human WI-38 fibroblasts (ECACC 90020107) were cultured in EMEM; host or cells: WI-38 human fibroblasts
T2 sequence (Q12884 1-760): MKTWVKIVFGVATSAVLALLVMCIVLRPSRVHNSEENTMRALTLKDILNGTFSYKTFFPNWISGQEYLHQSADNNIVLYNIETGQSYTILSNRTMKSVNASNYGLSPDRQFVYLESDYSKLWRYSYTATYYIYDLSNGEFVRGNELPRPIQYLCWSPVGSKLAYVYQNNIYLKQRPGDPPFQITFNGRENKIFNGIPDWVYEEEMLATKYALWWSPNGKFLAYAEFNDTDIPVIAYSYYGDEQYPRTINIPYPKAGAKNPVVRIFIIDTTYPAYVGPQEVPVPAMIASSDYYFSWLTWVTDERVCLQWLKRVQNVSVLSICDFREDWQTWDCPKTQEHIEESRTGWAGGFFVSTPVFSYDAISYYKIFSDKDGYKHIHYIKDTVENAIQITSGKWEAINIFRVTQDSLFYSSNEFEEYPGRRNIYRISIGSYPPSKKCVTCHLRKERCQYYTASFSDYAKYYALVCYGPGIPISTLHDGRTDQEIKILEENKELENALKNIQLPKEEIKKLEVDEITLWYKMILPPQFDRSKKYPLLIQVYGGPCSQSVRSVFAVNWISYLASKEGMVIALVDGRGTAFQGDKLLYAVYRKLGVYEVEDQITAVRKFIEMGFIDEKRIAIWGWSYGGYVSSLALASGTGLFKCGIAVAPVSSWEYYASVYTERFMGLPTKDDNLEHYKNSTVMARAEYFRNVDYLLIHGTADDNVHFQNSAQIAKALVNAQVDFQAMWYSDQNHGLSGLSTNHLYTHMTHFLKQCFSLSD
Method: In order to determine binding of compounds according to the present invention to FAP-expressing cells, a competitive FACS binding assay was established.
Cells were diluted in FACS buffer to a final concentration of 100.000 cells per ml and 200 µl of the cell suspension are transferred to a u-shaped non-binding 96-well plate (Greiner).
Cell were washed twice with FACS buffer (see above) and resuspended in 200 µl FACS buffer. Cells were analyzed in an Attune NxT flow cytometer (Thermo Fisher Scientific). Median fluorescence intensities (Cy5 channel) was calculated by Attune NxT software and plotted against test compound concentrations. Four parameter logistic (4PL) curve fitting and pIC50 calculations were performed using ActivityBase software.

Human recombinant FAP [2] = target: T3, Human recombinant FAP (Homo sapiens, UniProt Q12884); assay: FRET-based FAP protease activity assay (human); assay type: biochemical; parameters: purchased R&D systems 3715-SE; conditions: FRET-peptide substrate, 37°C; for IC50: read-out: pIC50 (Activity) (converted)
T3 sequence (Q12884 1-760): T2 sequence (Q12884 1-760)
Method: (§3) In order to determine the inhibitory activity a FRET-based FAP protease activity assay was established.
25 µL of a 30 µM substrate solution, diluted in assay buffer, was added. […] Four parameter logistic (4PL) curve fitting and pIC50 calculations were performed using ActivityBase software (IDBS).

Recombinant human DPP4 = target: T4, Recombinant human DPP4 (Homo sapiens, UniProt P27487); assay: DPP4 protease activity assay; assay type: biochemical; conditions: 20 µM GP-AMC substrate; for IC50: read-out: pIC50 (DPP4) (converted)
T4 construct: purchased R&D systems 9168-SE
T4 sequence (P27487 whole entry): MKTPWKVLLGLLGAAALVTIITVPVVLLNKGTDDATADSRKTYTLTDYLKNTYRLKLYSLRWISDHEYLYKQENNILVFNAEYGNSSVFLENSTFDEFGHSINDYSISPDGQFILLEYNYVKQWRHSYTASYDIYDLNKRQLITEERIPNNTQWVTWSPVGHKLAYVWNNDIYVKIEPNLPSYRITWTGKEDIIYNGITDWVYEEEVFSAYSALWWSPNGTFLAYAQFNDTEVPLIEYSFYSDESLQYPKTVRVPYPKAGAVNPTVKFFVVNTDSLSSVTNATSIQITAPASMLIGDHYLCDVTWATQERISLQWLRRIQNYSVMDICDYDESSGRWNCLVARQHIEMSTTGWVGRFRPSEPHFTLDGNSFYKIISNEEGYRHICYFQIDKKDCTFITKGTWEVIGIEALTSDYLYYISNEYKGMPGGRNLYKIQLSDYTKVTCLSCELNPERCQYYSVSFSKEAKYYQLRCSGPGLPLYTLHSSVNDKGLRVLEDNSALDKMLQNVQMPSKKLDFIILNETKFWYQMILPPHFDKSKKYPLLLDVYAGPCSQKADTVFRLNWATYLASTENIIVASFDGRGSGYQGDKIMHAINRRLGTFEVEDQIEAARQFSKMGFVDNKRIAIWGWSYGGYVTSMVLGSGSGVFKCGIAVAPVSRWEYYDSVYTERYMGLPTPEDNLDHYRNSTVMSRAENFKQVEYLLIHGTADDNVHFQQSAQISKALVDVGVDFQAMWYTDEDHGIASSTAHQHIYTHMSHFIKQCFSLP
Method: as §1, §2

Recombinant mouse FAP = target: T5, Recombinant mouse FAP (Mus musculus, UniProt P97321); assay: FRET-based FAP protease activity assay (mouse); assay type: biochemical; conditions: FRET-peptide substrate, 37°C; for IC50: read-out: pIC50 (mouseFAP) (converted)
T5 construct: purchased R&D systems 8647-SE
T5 sequence (P97321 1-761): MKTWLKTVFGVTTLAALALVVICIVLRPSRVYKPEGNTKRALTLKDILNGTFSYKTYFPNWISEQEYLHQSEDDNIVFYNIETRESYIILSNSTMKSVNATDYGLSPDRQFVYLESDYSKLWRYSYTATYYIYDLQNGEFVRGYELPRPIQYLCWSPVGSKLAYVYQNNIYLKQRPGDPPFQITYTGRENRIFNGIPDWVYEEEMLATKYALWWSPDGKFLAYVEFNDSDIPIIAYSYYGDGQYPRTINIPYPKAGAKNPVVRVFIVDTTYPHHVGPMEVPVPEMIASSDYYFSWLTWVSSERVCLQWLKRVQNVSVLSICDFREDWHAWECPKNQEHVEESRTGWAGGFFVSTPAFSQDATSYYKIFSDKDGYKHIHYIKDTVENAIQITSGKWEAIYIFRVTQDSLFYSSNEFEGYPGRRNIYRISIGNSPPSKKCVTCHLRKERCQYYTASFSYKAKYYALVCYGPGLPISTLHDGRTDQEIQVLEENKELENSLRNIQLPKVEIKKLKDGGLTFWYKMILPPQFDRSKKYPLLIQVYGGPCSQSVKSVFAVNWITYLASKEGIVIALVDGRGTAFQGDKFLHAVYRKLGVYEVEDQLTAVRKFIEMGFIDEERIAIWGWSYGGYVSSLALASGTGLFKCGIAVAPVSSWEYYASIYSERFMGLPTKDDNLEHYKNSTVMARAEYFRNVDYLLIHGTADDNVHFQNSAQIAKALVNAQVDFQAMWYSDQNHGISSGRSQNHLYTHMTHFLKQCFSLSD
Method: as §3
25 µL of a 30 µM substrate solution, diluted in assay buffer, was added. […] Four parameter logistic (4PL) curve fitting and pIC50 calculations were performed using ActivityBase software.

Human recombinant FAP [3] = target: T3, Human recombinant FAP; assay: Surface plasmon resonance assay (Biacore T200, single cycle kinetics); assay type: binding; conditions: SPR, 25°C; for pKD (Biacore): 1:1 Langmuir binding model; for HL [min] (Biacore): half-life
Method: Surface plasmon resonance studies were performed using a Biacore™ T200 SPR system (Cytiva, formerly GE Healthcare). Briefly, polarized light is directed towards a gold-labeled sensor surface, and minimum intensity reflected light is detected. The angle of reflected light changes as molecules bind and dissociate. […] Test compounds are contacted with the loaded surface, and a real-time interaction profile with the FAP ligand is recorded in a sensorgram. In real-time, the association and dissociation of a binding interaction is measured, enabling calculation of association and dissociation rate constants and the corresponding affinity constants. Importantly, a background response is generated due to the difference in the refractive indices of the running and sample buffers, as well as unspecific binding of the test compounds to the flow cell surface. This background is measured and subtracted by running the sample on a control flow cell coated with the same density of capture antibody in the absence of immobilized FAP. Furthermore, baseline drift correction of the binding data is performed, which is caused by slow dissociation of the captured FAP from the immobilized antibody. This drift is measured by injecting running buffer through a flow cell with the antibody and FAP immobilized to the sensor surface.
Biacore™ CM5 sensor chips were used. […] A 150 µL aliquot was transferred into plastic vials and placed into the sample rack of the Biacore™ T200 instrument. Amine Coupling Kit Reagent solutions were transferred into plastic vials and placed into the sample rack: 90 µL of 0.4 M 1-ethyl-3-(3-dimethylaminopropyl)carbodiimide (EDC), and 90 µL of 0.1 M N-hydroxysuccinimide (NHS). A 130 µL aliquot of 1 M ethanolamine-HCl, pH 8.5, was transferred into plastic vials and placed into the sample rack. The Biacore™ liquid system was set-up as follows: Separate bottles containing distilled water (1 L), Running Buffer (500 mL), as well as an empty bottle for waste were placed onto the buffer tray. A preinstalled program for immobilization was used, with an immobilization level of 7000 RU. Immobilization was performed at 25°C. The immobilization procedure of anti-FAP antibodies was performed, as described in the Table 5. Table 5: Immobilization protocol for anti-FAP antibodies used on the CM5 sensor chip.
Human recombinant FAP was diluted in Running Buffer to a final concentration of 20 µg/mL. A 100 µL aliquot of human FAP-Working-Solution was transferred into plastic vials and placed into a sample rack. A 0.5 mM Compound-Stock-Solution was prepared by dissolving each compound in DMSO. For each test compound, Compound-Stock-Solutions were diluted in Running Buffer (HBST) at 500 nM and further diluted with HBST-DMSO Buffer (0.1% DMSO). SPR binding analyses for binary complexes were performed in SCK mode at 25°C. Following three SCK measurements, a baseline drift was assessed by injecting running buffer through a flow cell, with the antibody and FAP immobilized to the sensor surface. Table 6: Protocol for assessing the binding kinetics.
For each test compound, SPR raw data in the form of resonance units (RU) were plotted as sensorgrams using the Biacore™ T200 control software. The signal from the blank sensorgram was subtracted from that of the test compound sensorgram (blank corrected). The blank corrected sensorgram was corrected for baseline drift by subtracting the sensorgram of a SCK run without the test compound (running buffer only). The association rate (kon), dissociation rate (koff), dissociation constant (KD), and t1/2 were calculated from Blank-normalized SPR data using the 1:1 Langmuir binding model from the Biacore™ T200 evaluation software. Raw data and fit results were imported as text files in IDBS. The pKD value (negative decadic logarithm of dissociation constant) was calculated in the IDBS excel template.

Structure (SMILES) | IC50 (recombinant human PREP) [nM] | IC50 [1] [nM] | IC50 (Human recombinant FAP [2]) [nM] | IC50 (Recombinant human DPP4) [nM] | pIC50 (mouseFAP) (Recombinant mouse FAP) | pIC50 (FACS) [1] | pKD (Biacore) (Human recombinant FAP [3]) | HL [min] (Biacore) (Human recombinant FAP [3]) | pIC50 (Activity) (Human recombinant FAP [2]) | IC50 (Recombinant mouse FAP) [nM] | pIC50 (DPP4) (Recombinant human DPP4)
N#C[C@@H]1CCCN1C(=O)CNC(=O)c1ccnc2ccc(-c3cccc(C(=O)O)c3)cc12 | > 1000 | 3.16 | 1.58 | > 1000 | – | – | – | – | – | – | –
CN(CCCN1CCN(C(=O)CN2CCN(CC(=O)O)CCN(CC(=O)O)CCN(CC(=O)O)CC2)CC1)c1ccc2nccc(C(=O)NCC(=O)N3CC(F)(F)C[C@H]3C#N)c2c1 | – | – | – | – | 8.6 | 9 | >11 | >500 | 8.9 | – | –
CS(=O)(=O)c1cc(F)c(-c2ccc3nccc(C(=O)NCC(=O)N4CCC[C@H]4C#N)c3c2)c(F)c1 | – | 3.16 | 0.501 | > 1000 | – | – | – | – | – | 1 | –
Cc1cc(S(C)(=O)=O)ccc1-c1ccc2nccc(C(=O)NCC(=O)N3CC(F)(F)C[C@H]3C#N)c2c1 | – | 2 | 0.501 | 794 | – | – | – | – | – | 1.58 | –
N#C[C@@H]1CC(F)(F)CN1C(=O)CNC(=O)c1ccnc2ccc(OCCCN3CCN(C(=O)CN4CCN(CC(=O)O)CCN(CC(=O)O)CCN(CC(=O)O)CC4)CC3)cc12 [drawing 287] | – | – | – | – | 8.8 | – | – | >500 | – | – | <6
N#C[C@@H]1CCCN1C(=O)CNC(=O)c1ccnc2cc(-c3cccc(C(=O)O)c3)ccc12 | > 1000 | 2.51 | 1.58 | > 1000 | – | – | – | – | – | – | –
N#C[C@@H]1CC(F)(F)CN1C(=O)CNC(=O)c1cc[n+]([O-])c2ccc(-c3ccc(S(=O)(=O)CCCNC(=O)CN4CCN(CC(=O)O)CCN(CC(=O)O)CCN(CC(=O)O)CC4)cc3)cc12 | – | – | – | – | 9.1 | – | >11 | 110 | – | – | 7
N#C[C@@H]1CCCN1C(=O)CNC(=O)c1ccnc2ccc(-c3ccc(C(=O)NCCCN(CC(=O)O)C(=O)CN4CCN(CC(=O)O)CCN(CC(=O)O)CCN(CC(=O)O)CC4)cc3)cc12 | – | – | – | – | 8.9 | – | >11 | >500 | – | – | <6
CS(=O)(=O)c1ccc(-c2ccc3nccc(C(=O)NCC(=O)N4C[C@@H](F)C[C@H]4C#N)c3c2)cc1 | – | 1.58 | 0.631 | > 1000 | – | – | – | – | – | 0.631 | –
Cc1cc(S(C)(=O)=O)ccc1-c1ccc2nccc(C(=O)NCC(=O)N3CCC[C@H]3C#N)c2c1 | – | 12.6 | 0.631 | > 1000 | – | – | – | – | – | 1.26 | –
CS(=O)(=O)c1ccc(-c2ccc3nccc(C(=O)NCC(=O)N4C[C@H](F)C[C@H]4C#N)c3c2)cc1 | – | 50.1 | 3.16 | > 1000 | – | – | – | – | – | 10 | –
